Measurements published in patent US10828315B2 (Madrigal Pharmaceuticals, Inc., priority 2013, dated 2020).

Tests used:
[1] = test system: human SCLC tumor xenografts; test: Antitumor activity in human SCLC tumor xenografts; format: in vivo, mice
[2] = test system: Hsp90 client proteins (EGFR, MET, CDC2), Hsp70, DNA damage markers; test: Pharmacodynamics in SCLC xenograft tumors; format: in vivo
HER2 = HER2 degradation assay with BT-474 cell line (Example 12, FACS); format: cell-based, human
[3] = test system: human urinary bladder cancer cell line RT-112; test: Cytotoxicity assay (CellTiter-Glo, 72 h), RT-112; format: cell-based; conditions: RT-112, 72 hours, read-out: Cytotoxicity (IC50, nM) RT-112
Description: Cytotoxicity of SDC-TRAP molecules was determined in three cancer cell lines. […] 80 μL of CellTiter-Glo was added to each well, followed by room temperature incubation in the dark for 15 minutes. Cell was determined by luminescence. IC50 was calculated using XLfit™ software.

[4] = Artificial membrane permeability assay (PAMPA); conditions: same protocol, second table
Description: Pre-coated PAMPA plates were warmed to room temperature for at least 30 minutes prior to adding assay components.
Stock solutions were prepared with the SDC-TRAP molecules to be tested. In order to make a working solution, either 50 μL of 100 μM Stock in DMSO+950 μL of PBS or 50 μL of 200 μM stock was added to 96 deep well plate, resulting in a 5 μM final concentration or a 10 μM final concentration, respectively. 3000 μL of the working solution containing each compound to be tested was added to the appropriate well of a donor PAMPA plate. 200 μL of PBS was added into the corresponding wells of an acceptor PAMPA plates.
The acceptor plate was lowered onto the donor plate and allowed to incubate for five hours. After five hours, a 50 μL aliquot was removed from each well of each plate and added into a new 96 deep-well plate.
100 μL of methanol containing an internal standard was added to each aliquot and analyzed by LC/MS.
In order to calculate the permeability for each SDC-TRAP molecule and the control molecules, the following formula was used:

MCF-7 xenografts = conditions: mouse, in vivo
Description: MCF-7 breast cancer cells were purchased from ATCC. The cells were maintained in vitro as a monolayer culture in McCoy's 5a Medium. Fetal bovine serum was then added to the medium. The final concentration of fetal bovine serum was 10%. Cells were cultured at 37° C. and 5% CO2. The tumor cells were routinely sub-cultured twice weekly by trypsin-EDTA treatment. Cells in an exponential growth phase were harvested and counted for tumor inoculation.
75 24-30 g, 10-13 week old, female CD-1 nude mice were inoculated with the MCF-7 cells (5.0×10^6/mouse) orthotopically in mammary fat pad (0.1 mL/mouse). 60 days estrogen pellets was implanted the day prior to cell implantations. When the average tumor volume reached about 100-225 mm^3, 40 of the inoculated mice were selected based on tumor growth and randomly grouped into 5 treatment groups (8 mice per group) according to the following table. Mice that were not put on treatment were euthanized.
During the treatment period, the implanted tumors were measured by caliper twice per week. […] Animal body weights were also weighed and recorded 5× per week.

[5] = SCLC xenograft tumors, 24 hrs after drug exposure

CCc1c2c(nc3ccc(OC(=O)N4CCC(CCn5ccc6cc(-n7c(O)nnc7-c7cc(C(C)C)c(O)cc7O)ccc65)CC4)cc13)-c1cc3c(c(=O)n1C2)COC(=O)[C@]3(O)CC [SDC-TRAP-0063, 4,11-diethyl-4-hydroxy-3,14-dioxo-3,4,12,14-tetrahydro-1H-pyrano[3′,4′:6,7]indolizino[1,2-b]quinolin-9-yl 4-(2-(5-(3-(2,4-dihydroxy-5-isopropylphenyl)-5-hydroxy-4H-1,2,4-triazol-4-yl)-1H-indol-1-yl)ethyl)piperidine-1-carboxylate]
tolerability ([1]; SCLC xenografts): very well tolerated | antitumor activity in SCLC xenografts (FIG. 19) ([1]; once weekly for three weeks, then drug-free period, SDC-TRAP-0063 100 and 150 mg/kg): remarkable and durable antitumor activity compared with irinotecan or ganetespib plus irinotecan | kinetics of acetyl-histone H3 induction ([2]; SCLC xenograft tumors, 24, 72 and 96 hrs): gradual increase in H3ac levels, peaking at 96 hr | Hsp90 client proteins (EGFR, MET, CDC2) and Hsp70 expression [2, 5]: slight increase in Hsp70 with no impact on EGFR, MET or CDC2 | markers for DNA damage (acetyl-histone H3, p53, p-H2AX) [2, 5]: dramatic increase in markers for DNA damage | phosphorylation of p53 ([2]; SCLC xenograft tumors, out to 96 hrs): induced by both agents, though more so with SDC-TRAP-0063 | IC50 (HER2): 793 nM | IC50 [3]: 83 nM | Mass Retention [4]: 18.7% | safety profile (MCF-7 xenografts): good safety profile
